Like-named read-outs stand apart in the source and are kept apart here.
Key:
EGFR (ErbB1) = EGFR (ErbB1) (Homo sapiens, UniProt P00533); assay: SelectScreen kinase profiling / Z′-Lyte kinase assay
TEC = TEC (Homo sapiens, UniProt P42680); assay: SelectScreen kinase profiling; format: biochemical; conditions: average of duplicate
[1] = molecular target: MAP2K1 (MEK1) S218D S222D (Homo sapiens, UniProt Q02750, S218D/S222D); assay: SelectScreen kinase profiling; format: biochemical; conditions: average of duplicate
ERBB2 (HER2) = ERBB2 (HER2) (Homo sapiens, UniProt P04626); assay: SelectScreen kinase profiling; format: biochemical; conditions: average of duplicate
RIPK2 = RIPK2 (Homo sapiens, UniProt O43353); assay: SelectScreen kinase profiling; format: biochemical; conditions: average of duplicate
Sequence of RIPK2 (O43353 whole entry): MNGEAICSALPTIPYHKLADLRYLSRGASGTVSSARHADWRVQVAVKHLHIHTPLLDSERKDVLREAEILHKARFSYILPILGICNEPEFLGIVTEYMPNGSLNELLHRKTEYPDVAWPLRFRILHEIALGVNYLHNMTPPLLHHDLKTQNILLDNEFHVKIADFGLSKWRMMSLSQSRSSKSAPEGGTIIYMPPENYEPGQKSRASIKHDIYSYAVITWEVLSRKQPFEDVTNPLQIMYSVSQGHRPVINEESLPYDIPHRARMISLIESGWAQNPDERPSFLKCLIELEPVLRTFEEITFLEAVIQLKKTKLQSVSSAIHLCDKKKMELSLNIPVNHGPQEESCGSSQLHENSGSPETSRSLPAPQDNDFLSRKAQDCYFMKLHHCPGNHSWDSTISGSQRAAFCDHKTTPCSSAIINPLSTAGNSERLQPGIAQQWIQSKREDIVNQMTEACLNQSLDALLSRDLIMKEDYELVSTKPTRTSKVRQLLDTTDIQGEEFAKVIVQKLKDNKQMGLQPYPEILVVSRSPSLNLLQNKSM

BTK = BTK (Homo sapiens, UniProt Q06187); assay: Western blot, phosphorylation of BTK in Jeko-1 cells; format: cell-based; conditions: 2 h
Sequence of BTK (Q06187 whole entry, the tested form may be a part): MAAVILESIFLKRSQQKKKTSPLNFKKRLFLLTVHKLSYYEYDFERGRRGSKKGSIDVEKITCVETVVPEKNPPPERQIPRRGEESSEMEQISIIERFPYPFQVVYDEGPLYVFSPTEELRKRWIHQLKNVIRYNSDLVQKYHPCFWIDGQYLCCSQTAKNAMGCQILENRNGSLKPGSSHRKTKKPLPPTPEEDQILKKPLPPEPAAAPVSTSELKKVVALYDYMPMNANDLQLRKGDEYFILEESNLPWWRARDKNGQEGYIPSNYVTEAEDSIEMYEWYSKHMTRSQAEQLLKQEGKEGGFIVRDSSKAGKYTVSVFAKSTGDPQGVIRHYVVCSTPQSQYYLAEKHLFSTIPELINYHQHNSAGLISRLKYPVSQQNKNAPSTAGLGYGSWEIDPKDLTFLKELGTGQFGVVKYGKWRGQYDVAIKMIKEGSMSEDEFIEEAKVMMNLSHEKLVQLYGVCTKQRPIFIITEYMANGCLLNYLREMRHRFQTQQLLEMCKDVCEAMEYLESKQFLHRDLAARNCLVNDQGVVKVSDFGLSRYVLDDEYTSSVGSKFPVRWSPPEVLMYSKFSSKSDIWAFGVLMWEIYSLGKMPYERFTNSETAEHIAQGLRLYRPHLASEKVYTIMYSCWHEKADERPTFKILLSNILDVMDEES

BTK-NanoLuc fusion = molecular target: T1, BTK-NanoLuc fusion (Homo sapiens, UniProt Q06187); assay: NanoBRET cellular engagement of BTK; format: cell-based; conditions: for IC50: HEK293 cells
T1 construct: host or cells: HEK293
T1 sequence (Q06187 whole entry, the tested form may be a part): as above
Protocol: NanoBRET Experiments: HEK293 cells were transfected with the BTK-NanoLuc fusion vector (Promega, #N2501) according to the manufacturer’s protocol. After […]
Promega, #N2501) for 30 minutes. After an additional 30, 60, or 90 minutes the NanoBRET complete substrate plus inhibitor solution (3X solution in Opti-MEM I reduced serum medium, no phenol red, Promega, #N2501) was added to each well.
After 5-10 minutes, the BRET ratio was measured using BMG Labtech CLARIOstar with preloaded filters for donor 450nm/80nm BP (band pass) and acceptor 610nm LP (long

ITK = molecular target: T2, ITK (Homo sapiens, UniProt Q08881); assay: AssayQuant kinact/Ki profiling, PhosphoSens CSox-based kinetic assay
T2 sequence (Q08881 1-620): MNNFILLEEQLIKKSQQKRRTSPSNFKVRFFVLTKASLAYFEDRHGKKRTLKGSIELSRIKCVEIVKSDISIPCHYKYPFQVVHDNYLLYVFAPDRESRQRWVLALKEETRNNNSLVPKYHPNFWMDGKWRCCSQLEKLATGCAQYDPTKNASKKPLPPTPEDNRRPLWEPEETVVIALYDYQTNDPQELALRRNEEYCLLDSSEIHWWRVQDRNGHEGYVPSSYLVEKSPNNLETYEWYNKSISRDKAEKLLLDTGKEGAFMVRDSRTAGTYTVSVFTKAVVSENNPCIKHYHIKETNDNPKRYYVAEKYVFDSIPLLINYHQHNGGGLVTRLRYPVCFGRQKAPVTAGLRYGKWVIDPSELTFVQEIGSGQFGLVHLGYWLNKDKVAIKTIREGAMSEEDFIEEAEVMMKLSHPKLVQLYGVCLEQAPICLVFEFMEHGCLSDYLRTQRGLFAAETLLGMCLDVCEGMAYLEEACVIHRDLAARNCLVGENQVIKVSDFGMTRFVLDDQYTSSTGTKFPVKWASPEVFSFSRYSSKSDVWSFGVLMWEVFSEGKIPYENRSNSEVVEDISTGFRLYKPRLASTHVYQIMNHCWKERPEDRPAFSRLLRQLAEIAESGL

JAK3 = JAK3 (Homo sapiens, UniProt P52333); assay: SelectScreen kinase profiling / Z′-Lyte kinase assay
Sequence of JAK3 (P52333 781-1124 limits assumed): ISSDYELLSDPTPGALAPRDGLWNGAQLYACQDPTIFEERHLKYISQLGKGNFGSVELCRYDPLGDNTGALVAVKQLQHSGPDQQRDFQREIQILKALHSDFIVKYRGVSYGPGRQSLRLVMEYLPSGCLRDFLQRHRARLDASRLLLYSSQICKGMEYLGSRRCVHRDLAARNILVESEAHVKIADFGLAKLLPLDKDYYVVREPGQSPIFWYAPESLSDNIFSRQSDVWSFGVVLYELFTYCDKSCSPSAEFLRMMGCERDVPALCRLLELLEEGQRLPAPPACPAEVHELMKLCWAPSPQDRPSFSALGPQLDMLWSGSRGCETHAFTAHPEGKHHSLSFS

KIT V559D = KIT V559D (Homo sapiens, UniProt P10721, V559D); assay: SelectScreen kinase profiling; format: biochemical; conditions: average of duplicate
Sequence of KIT V559D (P10721 26-976 V559D): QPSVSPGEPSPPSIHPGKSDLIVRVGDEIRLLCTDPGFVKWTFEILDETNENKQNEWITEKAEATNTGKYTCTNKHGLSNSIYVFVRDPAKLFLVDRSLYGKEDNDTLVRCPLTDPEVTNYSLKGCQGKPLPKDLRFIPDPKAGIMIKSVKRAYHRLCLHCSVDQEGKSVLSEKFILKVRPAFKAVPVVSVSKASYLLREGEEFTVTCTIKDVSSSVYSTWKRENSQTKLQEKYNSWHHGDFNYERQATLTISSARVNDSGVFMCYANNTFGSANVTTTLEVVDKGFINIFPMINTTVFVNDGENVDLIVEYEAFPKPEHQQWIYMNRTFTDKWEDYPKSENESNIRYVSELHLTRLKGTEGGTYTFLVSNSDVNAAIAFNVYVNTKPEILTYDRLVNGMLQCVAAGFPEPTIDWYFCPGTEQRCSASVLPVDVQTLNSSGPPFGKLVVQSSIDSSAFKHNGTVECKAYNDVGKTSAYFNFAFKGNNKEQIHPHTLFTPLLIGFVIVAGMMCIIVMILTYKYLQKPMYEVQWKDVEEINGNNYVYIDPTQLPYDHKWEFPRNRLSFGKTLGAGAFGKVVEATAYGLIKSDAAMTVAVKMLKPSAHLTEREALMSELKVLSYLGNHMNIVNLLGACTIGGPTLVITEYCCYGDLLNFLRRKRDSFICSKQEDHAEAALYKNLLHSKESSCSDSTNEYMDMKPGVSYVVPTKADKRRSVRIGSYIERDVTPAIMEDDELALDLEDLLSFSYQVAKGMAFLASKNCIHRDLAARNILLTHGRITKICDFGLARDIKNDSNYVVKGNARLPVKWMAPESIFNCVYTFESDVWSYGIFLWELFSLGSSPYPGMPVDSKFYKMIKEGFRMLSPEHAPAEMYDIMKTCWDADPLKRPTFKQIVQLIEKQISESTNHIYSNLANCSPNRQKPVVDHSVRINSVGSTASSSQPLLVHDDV

TXK = TXK (Homo sapiens, UniProt P42681); assay: SelectScreen kinase profiling; format: biochemical; conditions: average of duplicate
Sequence of TXK (P42681 whole entry): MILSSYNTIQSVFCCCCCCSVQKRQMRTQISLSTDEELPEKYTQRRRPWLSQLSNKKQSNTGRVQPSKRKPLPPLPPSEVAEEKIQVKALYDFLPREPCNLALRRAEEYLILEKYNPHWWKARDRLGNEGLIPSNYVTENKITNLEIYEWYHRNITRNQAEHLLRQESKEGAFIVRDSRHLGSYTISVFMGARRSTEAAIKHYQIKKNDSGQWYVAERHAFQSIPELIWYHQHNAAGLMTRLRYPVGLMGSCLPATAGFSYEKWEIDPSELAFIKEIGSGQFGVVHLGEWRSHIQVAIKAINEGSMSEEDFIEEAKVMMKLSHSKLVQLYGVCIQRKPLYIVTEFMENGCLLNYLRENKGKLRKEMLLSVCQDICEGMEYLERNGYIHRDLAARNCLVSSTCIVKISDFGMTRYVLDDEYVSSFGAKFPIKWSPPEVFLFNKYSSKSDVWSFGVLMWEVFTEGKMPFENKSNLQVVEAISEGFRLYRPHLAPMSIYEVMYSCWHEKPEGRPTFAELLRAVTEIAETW

FRK (PTK5) = FRK (PTK5) (Homo sapiens, UniProt P42685); assay: SelectScreen kinase profiling; format: biochemical; conditions: average of duplicate
PTK6 (Brk) = PTK6 (Brk) (Homo sapiens, UniProt Q13882); assay: SelectScreen kinase profiling; format: biochemical; conditions: average of duplicate
Sequence of PTK6 (Brk) (Q13882 whole entry): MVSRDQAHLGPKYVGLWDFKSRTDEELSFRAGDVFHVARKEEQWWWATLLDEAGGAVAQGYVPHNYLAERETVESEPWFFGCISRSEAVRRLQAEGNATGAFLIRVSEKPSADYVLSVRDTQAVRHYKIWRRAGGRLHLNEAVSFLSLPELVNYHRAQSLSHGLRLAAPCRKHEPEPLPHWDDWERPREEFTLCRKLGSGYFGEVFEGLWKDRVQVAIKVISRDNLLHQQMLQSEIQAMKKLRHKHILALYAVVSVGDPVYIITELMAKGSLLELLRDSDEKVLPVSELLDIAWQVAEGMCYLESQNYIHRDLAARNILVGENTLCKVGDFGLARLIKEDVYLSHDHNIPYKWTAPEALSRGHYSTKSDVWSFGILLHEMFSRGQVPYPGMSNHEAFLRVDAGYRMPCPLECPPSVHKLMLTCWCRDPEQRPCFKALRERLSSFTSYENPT

LYN A = LYN A (Homo sapiens, UniProt P07948); assay: SelectScreen kinase profiling; format: biochemical; conditions: average of duplicate
TTK = TTK (Homo sapiens, UniProt P33981); assay: SelectScreen kinase profiling; format: biochemical; conditions: average of duplicate
Sequence of TTK (P33981 whole entry): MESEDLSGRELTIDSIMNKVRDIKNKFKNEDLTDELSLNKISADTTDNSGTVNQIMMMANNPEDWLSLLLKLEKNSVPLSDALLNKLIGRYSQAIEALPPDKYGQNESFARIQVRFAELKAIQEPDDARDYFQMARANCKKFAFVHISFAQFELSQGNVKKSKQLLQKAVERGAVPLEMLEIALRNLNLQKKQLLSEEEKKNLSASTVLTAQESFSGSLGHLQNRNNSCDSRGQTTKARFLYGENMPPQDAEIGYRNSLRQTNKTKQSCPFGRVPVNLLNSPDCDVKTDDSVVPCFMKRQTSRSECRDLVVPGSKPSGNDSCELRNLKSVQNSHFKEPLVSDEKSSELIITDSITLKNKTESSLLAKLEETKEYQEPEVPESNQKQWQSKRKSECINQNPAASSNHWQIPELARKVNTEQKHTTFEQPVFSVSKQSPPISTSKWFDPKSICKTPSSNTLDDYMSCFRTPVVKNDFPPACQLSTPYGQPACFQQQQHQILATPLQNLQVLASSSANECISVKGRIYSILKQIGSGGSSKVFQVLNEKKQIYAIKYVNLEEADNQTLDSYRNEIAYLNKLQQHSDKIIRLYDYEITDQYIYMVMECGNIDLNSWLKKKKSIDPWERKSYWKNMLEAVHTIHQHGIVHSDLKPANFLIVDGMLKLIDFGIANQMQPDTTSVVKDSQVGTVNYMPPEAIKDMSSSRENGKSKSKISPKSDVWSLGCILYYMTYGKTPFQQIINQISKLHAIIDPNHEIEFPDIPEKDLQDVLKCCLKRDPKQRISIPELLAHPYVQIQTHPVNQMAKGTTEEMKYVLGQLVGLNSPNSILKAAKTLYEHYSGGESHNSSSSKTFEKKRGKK

[2] = BTK selectivity from IC50 values
[3] = Z′-Lyte, [ATP] Km app, 1 h incubation, duplicate

Sequence of EGFR (ErbB1) (P00533 668-1210 limits assumed): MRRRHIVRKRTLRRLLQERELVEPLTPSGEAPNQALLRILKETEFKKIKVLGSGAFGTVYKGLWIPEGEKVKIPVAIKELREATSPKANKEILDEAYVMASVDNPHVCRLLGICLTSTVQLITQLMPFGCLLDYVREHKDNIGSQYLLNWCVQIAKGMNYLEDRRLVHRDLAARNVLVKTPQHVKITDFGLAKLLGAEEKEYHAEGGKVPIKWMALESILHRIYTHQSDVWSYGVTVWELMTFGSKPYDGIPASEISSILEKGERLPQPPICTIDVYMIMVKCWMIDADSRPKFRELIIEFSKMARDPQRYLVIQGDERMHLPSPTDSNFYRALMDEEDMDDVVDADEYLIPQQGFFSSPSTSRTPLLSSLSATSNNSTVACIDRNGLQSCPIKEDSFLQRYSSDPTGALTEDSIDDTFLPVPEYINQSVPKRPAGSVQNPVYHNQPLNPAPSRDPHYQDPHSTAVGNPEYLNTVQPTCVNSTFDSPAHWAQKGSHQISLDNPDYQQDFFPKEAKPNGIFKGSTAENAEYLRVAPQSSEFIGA

With `C=CC(=O)N1CCCC(n2nc(-c3c(C)cc(Oc4ccccc4)cc3C)c3c(N)ncnc32)C1` (stereo in doubt) [Compound 3] the IC50 (EGFR (ErbB1)) was over 10000 nM, the inhibition at 1 µM (EGFR (ErbB1)) was 0% and the “EGFR, BTK/Kinase” value (EGFR (ErbB1); [2]) was over 781 x. The Hillslope (EGFR (ErbB1); EGFR IC50 curve) was 0.96, the “EGFR IC50” value (EGFR (ErbB1); [3]) was “no observable activities” and the inhibition at 0.000495 µM (EGFR (ErbB1); read-out: % Inhibition Point 1) was -4%. For the same compound, the inhibition at 0.00152 µM (EGFR (ErbB1); read-out: % Inhibition Point 1) was -1%, the inhibition at 0.00457 µM (EGFR (ErbB1); read-out: % Inhibition Point 1) was -2% and the inhibition at 0.0137 µM (EGFR (ErbB1); read-out: % Inhibition Point 1) was -1%. It also gave an inhibition at 0.0412 µM (EGFR (ErbB1); read-out: % Inhibition Point 1) of -6%, an inhibition at 0.123 µM (EGFR (ErbB1); read-out: % Inhibition Point 1) of 1% and an inhibition at 0.37 µM (EGFR (ErbB1); read-out: % Inhibition Point 1) of 5%. The inhibition at 1.11 µM (EGFR (ErbB1); read-out: % Inhibition Point 1) was 10%, the inhibition at 3.33 µM (EGFR (ErbB1); read-out: % Inhibition Point 1) was 20% and the inhibition at 10 µM (EGFR (ErbB1); read-out: % Inhibition Point 1) was 41%. For the same compound, the inhibition at 0.000495 µM (EGFR (ErbB1); read-out: % Inhibition Point 2) was 3%, the inhibition at 0.00152 µM (EGFR (ErbB1); read-out: % Inhibition Point 2) was -2% and the inhibition at 0.00457 µM (EGFR (ErbB1); read-out: % Inhibition Point 2) was 1%. It also gave an inhibition at 0.0137 µM (EGFR (ErbB1); read-out: % Inhibition Point 2) of 0%, an inhibition at 0.0412 µM (EGFR (ErbB1); read-out: % Inhibition Point 2) of -3% and an inhibition at 0.123 µM (EGFR (ErbB1); read-out: % Inhibition Point 2) of -2%. It also gave an inhibition at 0.37 µM (EGFR (ErbB1); read-out: % Inhibition Point 2) of 1%, an inhibition at 1.11 µM (EGFR (ErbB1); read-out: % Inhibition Point 2) of 5% and an inhibition at 3.33 µM (EGFR (ErbB1); read-out: % Inhibition Point 2) of 22%. It also gave an inhibition at 10 µM (EGFR (ErbB1); read-out: % Inhibition Point 2) of 45%, an inhibition at 1 µM (TEC) of 91% and an inhibition at 1 µM [1] of 4%. The inhibition at 1 µM (ERBB2 (HER2)) was 2%, the inhibition at 1 µM (RIPK2) was 29% and the “pBTK/BTK ratio normalized to the DMSO control” value (from here on “pBTK/BTK ratio normalized”) (BTK; 1 uM) was 0.37. The “pBTK/BTK ratio normalized” value (BTK; 10 uM) was 0.31, the “pBTK/BTK ratio normalized” value (BTK; .01 uM) was 0.47 and the “pBTK/BTK ratio normalized” value (BTK; .1 uM) was 0.36. For the same compound, the “NanoBRET HillSlope” value (BTK-NanoLuc fusion; 30 + 30) was -1.148, the “NanoBRET HillSlope” value (BTK-NanoLuc fusion; 30 + 60) was -1.118 and the “NanoBRET HillSlope” value (BTK-NanoLuc fusion; 30 + 90) was -1.419. For the same compound, the “NanoBRET HillSlope” value (BTK-NanoLuc fusion; 30 min Inc) was -1.230, the IC50 (BTK-NanoLuc fusion; 30 min) was 806 nM and the IC50 (BTK-NanoLuc fusion; 60 min (30 + 30)) was 474 nM. The IC50 (BTK-NanoLuc fusion; 90 min (30 + 60)) was 341 nM, the IC50 (BTK-NanoLuc fusion; 90 min post compound addition) was 314 nM and the IC50 (BTK-NanoLuc fusion; 120 min (30 + 90)) was 315 nM. For the same compound, the kinact (ITK; read-out: ITK kinact) was 0.0005 s⁻¹, the kinact/KI (ITK; read-out: ITK kinact/KI) was 2800 M⁻¹ s⁻¹ and the IC50 (JAK3) was over 10000 nM. The inhibition at 1 µM (JAK3) was -7%, the “JAK3, BTK/Kinase” value (JAK3; [2]) was over 781 x and the Hillslope (JAK3; JAK3 IC50 curve) was 0.86. The “JAK3 IC50” value (JAK3; [3]) was “no observable activities”, the inhibition at 0.000495 µM (JAK3; read-out: % Inhibition Point 1) was 4% and the inhibition at 0.00152 µM (JAK3; read-out: % Inhibition Point 1) was -1%. The inhibition at 0.00457 µM (JAK3; read-out: % Inhibition Point 1) was 2%, the inhibition at 0.0137 µM (JAK3; read-out: % Inhibition Point 1) was 1% and the inhibition at 0.0412 µM (JAK3; read-out: % Inhibition Point 1) was 1%. The inhibition at 0.123 µM (JAK3; read-out: % Inhibition Point 1) was 2%, the inhibition at 0.37 µM (JAK3; read-out: % Inhibition Point 1) was 3% and the inhibition at 1.11 µM (JAK3; read-out: % Inhibition Point 1) was 6%. The inhibition at 3.33 µM (JAK3; read-out: % Inhibition Point 1) was 17%, the inhibition at 10 µM (JAK3; read-out: % Inhibition Point 1) was 32% and the inhibition at 0.000495 µM (JAK3; read-out: % Inhibition Point 2) was 1%. The inhibition at 0.00152 µM (JAK3; read-out: % Inhibition Point 2) was -1%, the inhibition at 0.00457 µM (JAK3; read-out: % Inhibition Point 2) was -1% and the inhibition at 0.0137 µM (JAK3; read-out: % Inhibition Point 2) was 1%. It also gave an inhibition at 0.0412 µM (JAK3; read-out: % Inhibition Point 2) of 3%, an inhibition at 0.123 µM (JAK3; read-out: % Inhibition Point 2) of 4% and an inhibition at 0.37 µM (JAK3; read-out: % Inhibition Point 2) of 0%. It also gave an inhibition at 1.11 µM (JAK3; read-out: % Inhibition Point 2) of 11%, an inhibition at 3.33 µM (JAK3; read-out: % Inhibition Point 2) of 14% and an inhibition at 10 µM (JAK3; read-out: % Inhibition Point 2) of 32%. It also gave an inhibition at 1 µM (KIT V559D) of 1%, an inhibition at 1 µM (TXK) of 94% and an inhibition at 1 µM (FRK (PTK5)) of 9%. For the same compound, the inhibition at 1 µM (PTK6 (Brk)) was 69%, the inhibition at 1 µM (LYN A) was 13% and the inhibition at 1 µM (TTK) was -7%.

Reference: article PMC10009787 (ACS Medicinal Chemistry Letters, 2023)
